In patent US11471428B2, “Method and pharmaceutical composition for treating depression” (ZHEJIANG UNIVERSITY, priority 2017, dated 2022):
Structures can show the parent of a compound that is named as a salt.

Experiments:
[1] = not told; cited from earlier work
[2] = test system: spontaneously bursting LHb neurons; assay: Spontaneous bursts of LHb neurons in brain slices, bath application; assay type: cell-based
cLH rats [3] = assay: Sucrose preference test (SPT) after local bilateral infusion in LHb of cLH rats; assay type: in vivo, rat; details: 1 ul each side
[4] = test system: lateral habenular neurons; assay: Hyperpolarization-triggered rebound bursts in LHb brain slices; assay type: cell-based; details: AP5 100 μM
NMDARs = assay type: cell-based; details: NBQX, picrotoxin, 0 Mg2+
cLH rats [5] = assay: Forced swim test (FST) after local bilateral infusion in LHb of cLH rats; assay type: in vivo, rat; details: 1 ul each side
NMDAR = details: cited from earlier work
AMPA receptor (AMPAR) = details: cited from earlier work
LHb neurons [6] = assay: In vivo multi-tetrode recording in the LHb of CRS mice; parameters: species or system mouse
silent LHb neurons = assay: NMDA perfusion-induced bursting in originally silent LHb neurons; assay type: cell-based
LHb neurons [7] = assay: Whole cell patch recording of spontaneous activity of LHb neurons, cLH rat model; assay type: cell-based; details: LHb slices of cLH rats
C56BL/6 mice = assay: Mouse forced swim test after i.p. administration; assay type: in vivo; details: 1 hour after administration
LHb neurons [8] = assay: Whole cell patch recording of spontaneous activity of LHb neurons, CRS mouse model; assay type: cell-based; details: LHb slices of CRS mice
[9] = mibefradil 10 nmol, 1 hr after infusion
[10] = ketamine 25 ug, 1 hr after infusion

SMILES	blood-brain barrier permeability [1]	also measured
O=C(O)c1cc(=O)c2ccccc2[nH]1 [kynurenic acid]	capable of crossing a blood-brain barrier or show at least certain level of blood-brain barrier permeability	–
NS(=O)(=O)Cc1noc2ccccc12 [zonisamide]	shows at least some level of blood-brain barrier permeability	–
CCCC(CCC)C(=O)[O-].[Na+] [sodium valproate]	shows at least some level of blood-brain barrier permeability	–
NC(CCCP(=O)(O)O)C(=O)O (centres unmarked) [AP5]	do not have blood-brain barrier permeability	spontaneous burst-firing ([2]; AP5 100 μM bath application): stopped burst-firing; hedonic behaviors in the SPT (cLH rats [3]; AP5 40 nmol, 0.5 h): increased hedonic behaviors; probability of neuron hyperpolarization-induced burst [4]: 0.12; isolated NMDAR-currents (NMDAR-EPSCs) (NMDARs): abolished; immobile time in the FST (cLH rats [5]; AP5 40 nmol, 0.5 h): efficiently reduced the immobile time; IC50 (NMDAR): 30 µM
O=C1NC(=O)C(c2ccccc2)(c2ccccc2)N1 [phenytoin]	shows at least some level of blood-brain barrier permeability	–
NC(CCCCCP(=O)(O)O)C(=O)O (centres unmarked) [AP7]	observed but at a low level	–
N[C@@H](Cc1ccccn1)c1ccccc1 [AZD6765]	capable of crossing a blood-brain barrier or show at least certain level of blood-brain barrier permeability	–
CC12CC3CC(C)(C1)CC(N)(C3)C2 [memantine hydrochloride]	capable of crossing a blood-brain barrier or show at least certain level of blood-brain barrier permeability	–
COCC(=O)O[C@]1(CCN(C)CCCc2nc3ccccc3[nH]2)CCc2cc(F)ccc2[C@@H]1C(C)C [mibefradil]	has no blood-brain barrier permeability	anhedonia in the SPT (cLH rats [3]; [9]): quickly rescued the depressive-like behaviors; immobility in the FST (cLH rats [5]; [9]): quickly rescued the depressive-like behaviors
NS(=O)(=O)c1cccc2c1c([N+](=O)[O-])cc1nc(O)c(O)nc12 [NBQX]	–	IC50 (AMPA receptor (AMPAR)): 0.15 µM; spontaneous bursts ([2]; NBQX 10 μM): reduced bursts, but to a much smaller extent than NMDAR blockade
CC1(C)OC(=O)NC1=O [dimethadione]	shows at least some level of blood-brain barrier permeability	–
CNC1(c2ccccc2Cl)CCCCC1=O (centres unmarked) [ketamine]	capable of crossing a blood-brain barrier or show at least certain level of blood-brain barrier permeability	LHb bursting activity in vivo (LHb neurons [6]; 10 mg/kg, i.p., 1 h prior to recording, CRS mice): significantly suppressed; cumulative frequency distributions of ISI (LHb neurons [6]; 10 mg/kg, i.p., CRS mice): significantly shifted toward control level; LHb network synchronization (STA and SFC, theta band) (LHb neurons [6]; 1 hr after systemic injection, 10 mg/kg, i.p., CRS mice): reversed to control level; 50% percentile of ISI (LHb neurons [6]; CRS mice treated with ketamine (control 143 ms, CRS 33 ms)): 121 ms; anhedonia, sucrose preference test (cLH rats [3]; [10]): sufficient to quickly rescue the depressive-like behaviors; sustained antidepressant effect in SPT (cLH rats [3]; ketamine 25 ug, 14 d): sustained antidepressant effects for 14 days; immobility time in the FST (cLH rats [5]; [10]): sufficient to quickly rescue the depressive-like behaviors; sustained antidepressant effect in FST (cLH rats [5]; ketamine 25 ug, 14 d): sustained antidepressant effects for 14 days; NMDA-induced bursting activity (silent LHb neurons; additional bath application of 100 μM ketamine): blocked; increase of bursting neurons in cLH rat model (LHb neurons [7]): reversed by ketamine; effect in the forced swim test (C56BL/6 mice; ketamine 2.5 mg/kg i.p.): ineffective; increase of bursting neurons in CRS mouse model (LHb neurons [8]): reversed by ketamine
NCC1(CC(=O)O)CCCCC1 [Gabapentin]	do not have blood-brain barrier permeability	–
CCC1(C)CC(=O)NC1=O (centres unmarked) [ethosuximide]	shows at least some level of blood-brain barrier permeability	effect in the forced swim test (C56BL/6 mice; ethosuximide 100 mg/kg i.p.): ineffective
CCCCCCC(C)(C)c1cc(O)c2c(c1)OC(C)(C)[C@H]1CC=C(CO)C[C@H]21 [HU-211]	capable of crossing a blood-brain barrier or show at least certain level of blood-brain barrier permeability	–
O=C(O)[C@@H]1C[C@H](CP(=O)(O)O)CCN1 (racemic) [Selfotel]	capable of crossing a blood-brain barrier or show at least certain level of blood-brain barrier permeability	–
CNCC[C@@H](Oc1ccccc1C)c1ccccc1 [Atomoxetine]	capable of crossing a blood-brain barrier or show at least certain level of blood-brain barrier permeability	–
CCN(c1ccccc1)c1cc(=NC)n(C)c(C)n1.Cl [ZD7288]	–	effect on spontaneous bursts ([2]; ZD7288 50 μM): significant but much smaller effect on bursts than mibefradil
O=C(O)C1CN(C/C=C/P(=O)(O)O)CCN1 (centres unmarked) [CPPene]	capable of crossing a blood-brain barrier or show at least certain level of blood-brain barrier permeability	–
CN1C(=O)CC(C)(c2ccccc2)C1=O (centres unmarked) [methsuximide]	shows at least some level of blood-brain barrier permeability	–
COc1ccc2c(c1)[C@]13CCCC[C@@H]1[C@H](C2)N(C)CC3 [Dextromethorphan]	capable of crossing a blood-brain barrier or show at least certain level of blood-brain barrier permeability	–
CN1C(=O)OC(C)(C)C1=O [trimethadione]	shows at least some level of blood-brain barrier permeability	–
CCc1cccc(N(C)C(N)=Nc2cccc3ccccc23)c1 [Aptiganel]	capable of crossing a blood-brain barrier or show at least certain level of blood-brain barrier permeability	–
C/C=C1\[C@H]2C=C(C)C[C@]1(N)c1ccc(=O)[nH]c1C2 [Huperzine A]	capable of crossing a blood-brain barrier or show at least certain level of blood-brain barrier permeability	–
NC12CC3CC(CC(C3)C1)C2 [Amantadine]	capable of crossing a blood-brain barrier or show at least certain level of blood-brain barrier permeability	–
CN[C@H](CC(=O)O)C(=O)O [NMDA, N-methyl-D-aspartate]	–	originally silent LHb neurons induced to strong bursting activity (silent LHb neurons; NMDA 20 μM, NBQX, picrotoxin, 0 Mg2+): 10 out of 13
CN[C@]12CCCC[C@H]1Cc1ccccc12 [PD-137889]	capable of crossing a blood-brain barrier or show at least certain level of blood-brain barrier permeability	–
CC(C)(C)CCN1C[C@@H]2C(CNC(=O)c3cc(Cl)cc(Cl)c3)[C@@H]2C1 (some centres unmarked) [ML218]	shows at least some level of blood-brain barrier permeability	–
